Values quoted from earlier work in patent US5043321A, “Adrenocorticotropin release inhibiting factor” (Center for Innovative Technology, priority 1988, dated 1991).
No end group written: not given here.

Assays:
[1] = test system: rat anterior pituitary gland; details: Okajima et al
[2] = test system: hemorrhage induced corticosterone secretion; details: Hattori et al

delta sleep inducing peptide [DSIP]
most effective concentration for inhibition of ACTH secretion [1]: 10 nM
effect on CRF induced ACTH secretion ([1]; rat anterior pituitary gland in vitro): inhibits CRF induced ACTH secretion

alpha-hANP: alpha-hANP (presumably ANF[1-28]) used by Hattori et al (SLRRSSCFGGRMDRIGAQSGLGCNSFRY; ends and bridges not checked; cysteine pairing not given here; UniProt P01160 124-151, looked up)
effect on hemorrhage induced corticosterone secretion in vivo [2]: no effect
effect on plasma ACTH ([2]; preliminary study): inhibition of plasma ACTH that was not dose dependent
